Laboratory results published in patent publication US11446299B2, “Carbazole EHop-016 derivatives as anticancer and anti-migratory agents” (UNIVERSITY OF PUERTO RICO, priority 2017, dated 2022).

Experiments:
[1] = tested on: GFP-MDA-MB-231 cells; assay: Mammary tumor growth and metastasis in immunocompromised mice; type: in vivo; details: 1 mg/kg BW i.p., Monday to Friday, approximately 2 months
Method: FIG. 18 (A-D). Effect of HV-118 on mammary tumor growth. Severe combined immune deficiency (SCID) mice were inoculated at the mammary fat pad with GFP-MDA-MB-231 cells and treated with 0 (Vehicle) or 1 mg/kg BW HV-118 (5× a wk). FIG. 18A. Upper panel, representative images and lower panel, average relative tumor growth on last day. FIG. 18B. Relative tumor growth as a function of days following HV-118 administration. Lungs and livers were removed at necropsy and imaged for fluorescent metastatic foci. FIG. 18C. Representative organs under fluorescence microscopy for 0 (Vehicle) and 1 mg/kg BW HV-118 treatment. FIG. 18D. […]
Preliminary data supporting HV-118 as a potent inhibitor of Rac activation in breast cancer cells was confirmed. […] Tumor growth and metastasis were assessed by fluorescent imaging. HV-118 toxicity was also determined.
An in vivo study was performed to assess HV-118 toxicity and test its effects in mammary tumor growth and metastasis. […] The effects of HV-118 on tumor growth were monitored weekly by in situ fluorescence image analysis (starting from day 1 of treatment). Mammary tumor growth was quantified using Image J software, as the pixel intensity (integrated density) determined from digital tracing of the fluorescent tumor area at each imaging session and calculated as a function of the fluorescence intensity on day one of treatment. […]

[2] = tested on: Akt; assay: Akt phosphorylation by western blot; type: cell-based, human; details: 24 h
Method: FIG. 16 (A-D). Inhibition of pAKT by HV-107 and HV-118. FIG. 16 A, C. MDA-MB-231 and FIG. 16 B, D. MDA-MB-435 human metastatic breast cancer cells were treated for 24 h with 0, 250, 500 or 1000 nM HV-107, 100 or 200 nM HV-118. After treatment, total protein was extracted, and equal amounts of proteins were western blotted for total and phosphorylated Akt (pAkt). Positive bands were quantified using image J. N=4-6; error bars represent t SEM; * p≤0.05.
(§1) Subsequently, the effects of HV-107 and HV-118 were evaluated in cell survival and cell migration, known Rac-regulated cell functions relevant for cancer progression. The effects of HV-107 and HV-118 on cancer cell survival were determined by measuring the levels of active caspase 3 in MDA-MB-231 and MDA-MB-435 metastatic breast cancer cells after treatment with HV-107 at 500 and 1000 nM, or HV-118 at 100 and 200 nM for 48-72 h. After 48 h, HV-107 caused a significant 1.4-1.5 fold increase in caspase 3 activity in MDA-MB-231 (at 500 and 1000 nM) and MDA-MB-435 (at 1000 nM) cells. […] The effects of both compounds were also examined in the activity of Akt, an important kinase that promotes survival signaling, is frequently hyperactivated in malignant cancers, and can be regulated by Rac. Because Akt is activated by phosphorylation events, the effects of HV-107 and HV-118 were analyzed in Akt phosphorylation by western blot (FIG. 16 (A-D)).

[3] = tested on: MDA-MB-231 and MDA-MB435 metastatic breast cancer cell lines; assay: Wound healing assay of HV-107 and HV-118; type: cell-based; details: Homo sapiens, 24 h, read-out: inhibition of cell migration
Method: FIG. 17 (A-B). Effect of HV-107 and HV-118 on cell migration. Wounds were created on confluent monolayers of MDA-MB-231 or MDA-MB-435 human metastatic breast cancer cells. Immediately after, cells were treated for 24 h with FIG. 17A. 0, 1000, or 2000 nM of HV-107; and FIG. 17B. 0, 100, or 200 nM HV-118. The distance traveled by HV-107 and HV-118 treated cells that migrated to close the wound was quantified relative to the distance traveled by control-treated cells. N=4-7; error bars represent ±SEM; * p≤0.05.
Finally, wound healing assays were performed to assess the effects of HV-107 and HV-118 on metastatic breast cancer cell migration.

[4] = tested on: caspase 3; assay: Caspase-Glo 3/7 assay; type: cell-based, human
Method: FIG. 15 (A-D). Effect of HV-107 and HV-118 on Caspase 3/7 activity. FIG. 15 A, C. MDA-MB-231 and FIG. 15 B, D. MDA-MB-435 human metastatic breast cancer cells were treated for 48 or 72 h with 0, 500 or 1000 nM HV-107, 100 or 200 nM HV-118. Caspase 3/7 activity was measured using the Caspase-Glo 3/7 Assay (Promega, Corp.) as per manufacturer's instruction. N=4: error bars represent ±SEM; * p≤0.05.
as §1

[5] = tested on: breast cancer cell; assay: Breast cancer cell viability (cell line not given); type: cell-based; details: breast cancer cells, at concentrations ≥1 μM

SMILES: CCn1c2ccccc2c2cc(Nc3cc(C)nc(Cl)n3)ccc21 [HV-118, (2-Chloro-6-methyl-pyrimidin-4-yl)-(9-ethyl-9H-carbazol-3-yl)-amine]
- reduction in metastasis to lung and liver [1]: > 90%
- reduction in tumor growth [1]: 30%
- inhibition of Akt phosphorylation ([2]; both MDA-MB-231 and MDA-MB-435, 100 and 200 nM): 40-60%
- inhibition at 0.1 µM ([3]; 100 nM): ~60%
- inhibition at 0.2 µM ([3]; 200 nM): ~80%
- fold increase in caspase 3 activity ([4]; MDA-MB-231, 48 h, 100 and 200 nM): 1.6-1.8 fold
- fold increase in caspase 3 activity ([4]; MDA-MB-435, 72 h, 'the same level' as in MDA-MB-231): 1.6-1.8 fold

SMILES: CCn1c2ccccc2c2cc(C(=O)Nc3cccnc3N3CCOCC3)ccc21 [Compound 11b, 9-Ethyl-9H-carbazole-3-carboxylic Acid (2-morpholin-4-yl-pyridin-3-yl)-amide]
- inhibition at 1 µM ([2]; Homo sapiens, MDA-MB-435, 1000 nM): 25%
- inhibition of Akt phosphorylation ([2]; MDA-MB-231, 250-1000 nM): 50-60%
- inhibition at 2 µM ([3]; 2000 nM): 30 to 50%
- fold increase in caspase 3 activity ([4]; MDA-MB-231, 48 h, 500 and 1000 nM): 1.4-1.5 fold
- fold increase in caspase 3 activity ([4]; MDA-MB-435, 48 h, 1000 nM): 1.4-1.5 fold
- inhibition of breast cancer cell viability [5]: 45%
